This experiment deals with T1, Salicyl-AMP ligase / salicyl-S-ArCP synthetase (Mycobacterium tuberculosis, UniProt P71716).
T1 sequence (P71716 whole entry): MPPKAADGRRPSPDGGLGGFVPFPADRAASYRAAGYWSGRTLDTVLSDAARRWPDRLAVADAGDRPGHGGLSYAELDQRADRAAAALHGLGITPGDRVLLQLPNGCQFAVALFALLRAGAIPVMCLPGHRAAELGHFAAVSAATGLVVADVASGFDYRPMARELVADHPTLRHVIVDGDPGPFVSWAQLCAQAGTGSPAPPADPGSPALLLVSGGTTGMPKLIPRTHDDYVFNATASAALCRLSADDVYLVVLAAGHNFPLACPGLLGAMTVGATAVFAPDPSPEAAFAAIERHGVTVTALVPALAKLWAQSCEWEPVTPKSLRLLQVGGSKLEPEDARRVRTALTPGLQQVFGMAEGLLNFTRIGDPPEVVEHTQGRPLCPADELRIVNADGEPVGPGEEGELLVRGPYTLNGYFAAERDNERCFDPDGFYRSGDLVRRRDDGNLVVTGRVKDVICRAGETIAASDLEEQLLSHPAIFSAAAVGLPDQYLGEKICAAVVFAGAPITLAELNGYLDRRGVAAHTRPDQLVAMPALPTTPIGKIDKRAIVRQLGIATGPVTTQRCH
Nature of the experiment: Inhibition of Mycobacterium tuberculosis BAG RV143 MbtA expressed in Escherichia coli BL21 (DE3) assessed as ATP-[32P]PPi exchange by liquid scintillation counting. Particulars: read-out: Ki(app).

Among the data in ChEMBL document CHEMBL1152297, “Quantitative three dimensional structure linear interaction energy model of 5'-O-[N-(salicyl)sulfamoyl]adenosine and the aryl acid adenylating enzyme MbtA” (J Med Chem, 2008) are Ki values, retold here.

Turning to `Nc1ncnc2c1ncn2[C@@H]1O[C@H](COS(=O)(=O)CC(=O)c2ccccc2O)[C@@H](O)[C@H]1O`, the Ki is 3300 nM.

As to `Nc1ncnc2c1ncn2[C@H]1C=C[C@@H](COS(=O)(=O)NC(=O)c2ccccc2O)C1`, the Ki was determined as 830 nM.

Take `Nc1ncnc2c1ncn2[C@@H]1C[C@H](COS(=O)(=O)NC(=O)c2ccccc2O)[C@@H](O)[C@H]1O`: the Ki was 2.3 nM.

In the case of `Nc1ncnc2c1ncn2[C@@H]1O[C@H](COS(=O)(=O)NC(=O)c2ccccc2O)C[C@H]1O`, the Ki was 3.2 nM.

In the case of `Nc1ncnc2c1ncn2[C@@H]1O[C@H](CNS(=O)(=O)NC(=O)c2ccccc2O)[C@@H](O)[C@H]1O`, the Ki was found to be 3.8 nM.

On to `Nc1ncnc2c1ncn2[C@@H]1O[C@H](CNS(=O)(=O)/C=C/c2ccccc2O)[C@@H](O)[C@H]1O`, for which the Ki came out at 143000 nM.

On to `Nc1ncnc2c1ncn2[C@@H]1O[C@H](COS(=O)(=O)NCc2ccccc2O)[C@@H](O)[C@H]1O`, for which the Ki was 410 nM.

Take `Nc1ncnc2c1ncn2[C@H]1C[C@H](O)[C@@H](COS(=O)(=O)NC(=O)c2ccccc2O)O1`: the Ki came to 3.5 nM.

`Nc1ncnc2c1ncn2[C@H]1CC[C@@H](COS(=O)(=O)NC(=O)c2ccccc2O)C1`: the Ki is 61 nM.
